# Entries after “also recorded” stand apart in the source; their conditions may differ. Where two headings read alike, the source gives them in different places. Residues, ends and D or L forms follow the SMILES beside them. *: point of attachment. Cbz = O=C(OCc1ccccc1)*
# Assays:
# [1] = molecular target: HDAC3 (Homo sapiens, UniProt O15379+P40337); test: HDAC3 degradation by Western blot in MDA-MB-231 cells; format: cell-based
# [2] = molecular target: T1, HDAC8 (Homo sapiens, UniProt Q9BY41); test: HDAC8 degradation by Western blot in MDA-MB-231 cells; format: cell-based
# T1 sequence (Q9BY41 1-377): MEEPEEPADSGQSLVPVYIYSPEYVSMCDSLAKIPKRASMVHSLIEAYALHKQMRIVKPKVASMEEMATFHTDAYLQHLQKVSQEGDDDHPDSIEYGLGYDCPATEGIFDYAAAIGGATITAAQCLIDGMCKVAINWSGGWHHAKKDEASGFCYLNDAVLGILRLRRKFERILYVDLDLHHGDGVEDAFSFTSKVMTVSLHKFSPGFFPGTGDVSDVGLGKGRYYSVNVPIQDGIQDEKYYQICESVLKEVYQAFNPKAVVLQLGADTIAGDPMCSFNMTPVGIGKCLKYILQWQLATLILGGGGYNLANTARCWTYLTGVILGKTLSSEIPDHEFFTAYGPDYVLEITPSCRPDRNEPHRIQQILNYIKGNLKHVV
# [3] = test system: BC cell lines; test: Colony formation assays, comparison across several BC cell lines; format: cell-based, human; details: alone or in combination
# [4] = test system: MDA-MB-231 cells; test: RNA-seq differential gene expression; format: cell-based, human; details: for number of downregulated genes / number of upregulated genes: 24 h, fold-change≥|2|, p ≤ 0.01
# [5] = molecular target: T1, HDAC8; test: HDAC activity assay; format: biochemical
# [6] = test system: MDA-MB-231; test: Colony formation assay, MDA-MB-231; format: cell-based, human
# [7] = molecular target: T2, HDAC1 (Homo sapiens, UniProt Q13547); test: HDAC activity assay; format: biochemical
# [8] = molecular target: T2, HDAC1; test: HDAC1 protein level by Western blot in MCF7 and MDA-MB-231 cells; format: cell-based
# [9] = molecular target: HDAC2 (Homo sapiens, UniProt Q92769); test: HDAC2 protein level by Western blot in MCF7 and MDA-MB-231 cells; format: cell-based
# [10] = molecular target: HDAC1 and the VHL complex (Homo sapiens, UniProt Q13547); test: AlphaLISA ternary complex formation, HDAC1; format: binding; details: broad range of YX968 concentrations
# [11] = test system: acetylated core histones (H3K27ac, H2BK5ac, and H4K8ac); test: Histone acetylation by Western blot; format: cell-based, human
# [12] = test system: acetylated SMC3; test: Acetylated SMC3 by Western blot in MDA-MB-231 cells; format: cell-based, human; details: YX968 16 nM, 14 h
# [13] = test system: cell cycle progression; test: Cell cycle profiling; format: cell-based; details: 24 h
# [14] = test system: MCF7; test: Colony formation assay, MCF7; format: cell-based, human
# [15] = test system: T47D; test: Colony formation assay, T47D; format: cell-based, human
# [16] = test system: BT549; test: Colony formation assay, BT549; format: cell-based, human
# [17] = test system: MDA-MB-468; test: Colony formation assay, MDA-MB-468; format: cell-based, human
# [18] = test system: HCC1806; test: Colony formation assay, HCC1806; format: cell-based, human
# [19] = test system: H1299; test: Colony formation assay, H1299; format: cell-based, human
# [20] = test system: caspase 3 (CASP3); test: CASP3 cleavage; format: cell-based, human; details: MDA-MB-231, 16 h
# [21] = test system: p21; test: p21 induction by Western blot in MDA-MB-231 cells; format: cell-based, human; details: MDA-MB-231, 16 h
# [22] = test system: HDAC1/3/8; test: HDAC1/3/8 inhibitory activity in vitro, statements across the three isozymes; format: biochemical; details: for HDAC1/3/8 inhibitory potency and selectivity: warhead analogues
# [23] = pretreatment with probe, then YX968, MDA-MB-231
# [24] = q-value ≤0.05 and fold-change ≥|2.0|
# T2 sequence (Q13547 whole entry): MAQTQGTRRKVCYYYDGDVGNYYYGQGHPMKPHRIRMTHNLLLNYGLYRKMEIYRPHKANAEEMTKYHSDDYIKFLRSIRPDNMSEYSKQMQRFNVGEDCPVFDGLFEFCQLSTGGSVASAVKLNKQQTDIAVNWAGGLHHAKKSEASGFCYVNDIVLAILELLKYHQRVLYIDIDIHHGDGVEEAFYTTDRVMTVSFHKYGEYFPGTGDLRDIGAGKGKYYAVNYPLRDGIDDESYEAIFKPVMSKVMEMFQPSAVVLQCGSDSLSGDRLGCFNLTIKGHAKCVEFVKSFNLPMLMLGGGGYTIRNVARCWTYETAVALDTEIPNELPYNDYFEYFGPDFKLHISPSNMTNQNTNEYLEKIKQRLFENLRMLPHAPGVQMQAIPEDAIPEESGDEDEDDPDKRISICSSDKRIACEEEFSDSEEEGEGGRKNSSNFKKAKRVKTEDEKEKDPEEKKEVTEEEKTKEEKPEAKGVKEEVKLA
# Chain of HDAC3 (O15379 whole entry): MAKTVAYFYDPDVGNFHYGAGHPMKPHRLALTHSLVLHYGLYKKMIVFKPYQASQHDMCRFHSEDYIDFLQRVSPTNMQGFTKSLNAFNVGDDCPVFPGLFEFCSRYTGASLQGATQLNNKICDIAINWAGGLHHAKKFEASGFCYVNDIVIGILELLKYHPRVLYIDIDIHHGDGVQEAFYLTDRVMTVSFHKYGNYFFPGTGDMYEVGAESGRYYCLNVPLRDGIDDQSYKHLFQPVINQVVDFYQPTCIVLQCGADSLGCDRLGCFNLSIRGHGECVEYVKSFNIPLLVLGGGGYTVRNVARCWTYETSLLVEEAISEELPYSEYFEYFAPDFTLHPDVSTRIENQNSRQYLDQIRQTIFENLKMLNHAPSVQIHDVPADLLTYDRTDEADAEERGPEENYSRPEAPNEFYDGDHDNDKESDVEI
# Chain of HDAC3 (O75376 whole entry partner): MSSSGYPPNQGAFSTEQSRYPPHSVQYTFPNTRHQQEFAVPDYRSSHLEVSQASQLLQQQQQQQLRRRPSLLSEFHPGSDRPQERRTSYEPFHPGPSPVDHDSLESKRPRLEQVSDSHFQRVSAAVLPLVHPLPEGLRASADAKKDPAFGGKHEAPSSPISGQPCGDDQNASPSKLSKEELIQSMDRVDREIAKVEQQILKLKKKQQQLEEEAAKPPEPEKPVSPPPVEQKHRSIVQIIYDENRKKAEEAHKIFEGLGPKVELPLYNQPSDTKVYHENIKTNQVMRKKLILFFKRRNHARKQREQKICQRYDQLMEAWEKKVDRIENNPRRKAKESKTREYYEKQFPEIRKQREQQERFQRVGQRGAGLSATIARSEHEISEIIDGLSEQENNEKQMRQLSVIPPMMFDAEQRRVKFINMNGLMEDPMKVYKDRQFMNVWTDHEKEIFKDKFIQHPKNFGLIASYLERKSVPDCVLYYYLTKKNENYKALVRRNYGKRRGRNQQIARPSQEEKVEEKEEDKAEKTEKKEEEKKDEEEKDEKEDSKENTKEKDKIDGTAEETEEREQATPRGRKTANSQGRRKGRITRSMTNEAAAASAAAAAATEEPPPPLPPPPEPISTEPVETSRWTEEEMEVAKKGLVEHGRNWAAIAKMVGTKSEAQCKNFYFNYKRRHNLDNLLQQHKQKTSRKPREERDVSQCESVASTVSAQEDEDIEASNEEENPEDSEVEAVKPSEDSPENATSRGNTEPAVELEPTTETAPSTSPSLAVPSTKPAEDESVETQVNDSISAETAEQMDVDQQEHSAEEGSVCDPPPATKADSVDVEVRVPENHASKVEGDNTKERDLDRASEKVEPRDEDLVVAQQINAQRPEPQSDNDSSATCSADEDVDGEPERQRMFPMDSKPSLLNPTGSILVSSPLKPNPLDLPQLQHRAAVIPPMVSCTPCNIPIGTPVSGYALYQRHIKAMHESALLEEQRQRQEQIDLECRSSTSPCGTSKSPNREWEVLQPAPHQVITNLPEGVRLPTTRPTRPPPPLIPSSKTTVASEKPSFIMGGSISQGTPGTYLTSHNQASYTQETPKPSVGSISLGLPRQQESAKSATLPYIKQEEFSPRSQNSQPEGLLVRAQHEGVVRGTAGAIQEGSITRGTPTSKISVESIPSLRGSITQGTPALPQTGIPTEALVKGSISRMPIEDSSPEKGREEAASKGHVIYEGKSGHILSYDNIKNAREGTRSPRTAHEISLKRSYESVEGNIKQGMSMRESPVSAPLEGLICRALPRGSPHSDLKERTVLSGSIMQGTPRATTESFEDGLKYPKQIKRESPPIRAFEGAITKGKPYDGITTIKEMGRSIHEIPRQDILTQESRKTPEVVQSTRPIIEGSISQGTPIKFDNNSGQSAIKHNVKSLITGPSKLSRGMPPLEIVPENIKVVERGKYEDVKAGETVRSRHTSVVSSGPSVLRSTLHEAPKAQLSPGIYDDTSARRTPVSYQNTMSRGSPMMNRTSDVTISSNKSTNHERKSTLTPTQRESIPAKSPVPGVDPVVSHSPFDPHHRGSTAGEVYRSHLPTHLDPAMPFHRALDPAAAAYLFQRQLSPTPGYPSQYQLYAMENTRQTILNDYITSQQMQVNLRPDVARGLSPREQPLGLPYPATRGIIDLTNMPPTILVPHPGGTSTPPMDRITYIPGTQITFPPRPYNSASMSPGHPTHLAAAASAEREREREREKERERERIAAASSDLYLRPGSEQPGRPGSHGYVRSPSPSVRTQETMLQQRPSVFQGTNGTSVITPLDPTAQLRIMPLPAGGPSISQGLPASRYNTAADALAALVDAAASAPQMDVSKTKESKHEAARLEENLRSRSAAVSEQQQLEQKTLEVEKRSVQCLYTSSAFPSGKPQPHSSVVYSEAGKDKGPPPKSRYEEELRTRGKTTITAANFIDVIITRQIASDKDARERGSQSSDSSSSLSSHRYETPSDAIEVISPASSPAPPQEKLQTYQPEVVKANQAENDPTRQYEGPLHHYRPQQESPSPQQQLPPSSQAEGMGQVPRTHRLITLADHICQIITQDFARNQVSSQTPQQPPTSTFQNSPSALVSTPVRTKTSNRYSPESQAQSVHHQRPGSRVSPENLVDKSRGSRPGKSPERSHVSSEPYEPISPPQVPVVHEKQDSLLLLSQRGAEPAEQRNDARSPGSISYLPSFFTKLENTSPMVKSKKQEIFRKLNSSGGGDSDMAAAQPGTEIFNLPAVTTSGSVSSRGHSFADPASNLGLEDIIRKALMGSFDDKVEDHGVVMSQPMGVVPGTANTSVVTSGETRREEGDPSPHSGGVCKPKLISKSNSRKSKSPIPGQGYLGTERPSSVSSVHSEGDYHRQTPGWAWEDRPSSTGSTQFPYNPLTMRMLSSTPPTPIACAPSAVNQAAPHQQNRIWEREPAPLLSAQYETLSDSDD
# Chain of HDAC3 (P40337 whole entry): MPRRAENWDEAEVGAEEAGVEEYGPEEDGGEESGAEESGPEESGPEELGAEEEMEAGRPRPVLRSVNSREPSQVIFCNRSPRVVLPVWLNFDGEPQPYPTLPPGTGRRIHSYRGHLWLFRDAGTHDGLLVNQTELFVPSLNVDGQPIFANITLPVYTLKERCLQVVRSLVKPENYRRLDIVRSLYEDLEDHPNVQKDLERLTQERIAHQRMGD
# Chain of HDAC3 (Q15370 whole entry partner): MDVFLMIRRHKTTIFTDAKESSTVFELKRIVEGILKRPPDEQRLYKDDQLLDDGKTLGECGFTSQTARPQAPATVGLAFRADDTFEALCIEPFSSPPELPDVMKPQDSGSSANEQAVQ
# Chain of HDAC3 (Q15369 whole entry partner): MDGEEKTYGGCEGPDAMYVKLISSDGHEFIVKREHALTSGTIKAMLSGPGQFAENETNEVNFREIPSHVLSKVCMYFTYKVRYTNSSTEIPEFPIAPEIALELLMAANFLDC
# Chain of HDAC2 (Q92769 whole entry): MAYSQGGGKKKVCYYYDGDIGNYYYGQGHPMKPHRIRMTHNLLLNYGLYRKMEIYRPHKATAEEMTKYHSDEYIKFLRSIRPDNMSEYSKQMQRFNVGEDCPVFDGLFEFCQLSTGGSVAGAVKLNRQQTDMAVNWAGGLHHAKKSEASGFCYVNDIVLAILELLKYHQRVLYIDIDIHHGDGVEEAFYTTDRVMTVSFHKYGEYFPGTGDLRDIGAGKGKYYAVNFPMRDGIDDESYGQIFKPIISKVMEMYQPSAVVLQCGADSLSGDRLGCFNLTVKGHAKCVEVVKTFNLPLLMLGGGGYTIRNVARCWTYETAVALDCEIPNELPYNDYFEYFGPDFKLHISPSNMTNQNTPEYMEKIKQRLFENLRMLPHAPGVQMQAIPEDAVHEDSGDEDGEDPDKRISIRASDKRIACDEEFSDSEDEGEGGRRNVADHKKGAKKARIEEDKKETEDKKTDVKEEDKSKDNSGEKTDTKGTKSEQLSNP
# Chain of HDAC1 and the VHL complex (Q13547 whole entry, one chain of several): as the sequence (Q13547 whole entry) above
smiles,measurement,setting,value
Cc1cc2c(C(N)=O)cccc2n1-c1nc2c(c(NCc3ccccc3)n1)COCC2 [CB-5803],effect of pretreatment on YX968-mediated HDAC3 degradation,[1],only slightly rescued
same,effect of pretreatment on YX968-mediated HDAC8 degradation,[2],effectively blocked
CC(C)C[C@@H](C=O)NC(=O)[C@H](CC(C)C)NC(=O)[C@H](CC(C)C)NC(=O)OCc1ccccc1 [MG132] (Cbz-Leu-Leu-Leu-aldehyde),effect of pretreatment on YX968-mediated HDAC3 degradation,[1]; [23],blocked
same,effect of pretreatment on YX968-mediated HDAC3 degradation,[1]; probe at 3 μM,only moderately reversed
same,effect of pretreatment on YX968-mediated HDAC3 degradation,[1]; probe at 10 μM,more effectively rescued
same,effect of pretreatment on YX968-mediated HDAC8 degradation,[2]; [23],blocked
same,effect of pretreatment on YX968-mediated HDAC8 degradation,[2]; probe at 3 μM,effectively blocked
NS(=O)(=O)OC[C@@H]1C[C@@H](n2ccc3c(N[C@H]4CCc5ccccc54)ncnc32)C[C@@H]1O [MLN4924],effect of pretreatment on YX968-mediated HDAC3 degradation,[1]; [23],highly effective in blocking
same,effect of pretreatment on YX968-mediated HDAC8 degradation,[2]; [23],highly effective in blocking
COc1ccc(Cn2ccc3ccc(C(=O)NO)cc32)cc1 [PCI 34051],potency to suppress cell growth vs YX968,[3],less potent than YX968
Nc1cc(F)ccc1NC(=O)/C=C/c1cnn(C/C=C/c2ccccc2)c1 [RGFP-966],potency to suppress cell growth vs YX968,[3],less potent than YX968
CCCCNNC(=O)c1ccc(Br)cc1 [UF010],number of downregulated genes,[4]; UF010 treatment,761
same,number of upregulated genes,[4]; UF010 treatment,"2,678"
same,number of downregulated DEGs,[4]; [24],572
same,number of upregulated DEGs,[4]; [24],"1,792"
CC(=O)N[C@H](C(=O)N1C[C@H](O)C[C@H]1C(=O)NCc1ccc(-c2scnc2C)cc1)C(C)(C)C [VH032],effect of pretreatment on YX968-mediated HDAC8 degradation,[2]; [23],effectively competed
"CCCNNC(=O)c1ccc(-c2ccc(NC(=O)CCCCCCC(=O)N[C@H](C(=O)N3C[C@H](O)C[C@H]3C(=O)N[C@@H](C)c3ccc(-c4scnc4C)cc3)C(C)(C)C)cc2)cc1 [XZ9002, reference compound]",IC50,[5],1090 nM
same,inhibition of clonogenic growth,"[6]; MDA-MB-231, 3 μM",moderate inhibition
"CCCNNC(=O)c1ccc(N2CCN(CCCCCCCC(=O)N[C@H](C(=O)N3C[C@H](O)C[C@H]3C(=O)N[C@@H](C)c3ccc(-c4scnc4C)cc3)C(C)(C)C)CC2)cc1 [YX968, (2S,4R)-1-((S)-3,3-dimethyl-2-(8-(4-(4-(2-propylhydrazine-1-carbonyl)phenyl)piperazin-1-yl)octanamido)butanoyl)-4-hydroxy-N-((S)-1-(4-(4-methylthiazol-5-yl)phenyl)ethyl)pyrrolidine-2-carboxamide]",IC50,[7],591 nM
same,effect on HDAC1 protein level,[8],did not affect; also recorded: not degraded
same,effect on HDAC2 protein level,[9],did not affect; also recorded: not degraded
same,ternary complex formation with HDAC1,[10],not able to induce a complex
same,number of downregulated genes,[4]; 50 nM,41
same,number of upregulated genes,[4]; 50 nM,53
same,significant DEGs,[4]; [24],no significant DEGs
same,levels of acetylated core histones,[11]; MCF-7 and MDA-MB-231 cells,dose-dependently increased
same,concentration at which H3K27ac was weakly detectable,"[11]; MDA-MB-231, 16 h",63 nM
same,levels of acetylated SMC3,[12],increased
same,effect on cell cycle,[13]; 0.1 μM,negligibly perturbed; also recorded: did not alter cell cycle
same,effect on cell cycle,[13]; 1 μM,strong G1 arrest; also recorded: markedly induced G1 arrest
same,concentration at which clonogenic growth was effectively inhibited,[14],125 nM
same,concentration at which clonogenic growth was effectively inhibited,[15],125 nM
same,concentration at which clonogenic growth was effectively inhibited,[16],125 nM
same,concentration at which clonogenic growth was effectively inhibited,[17],125 nM
same,concentration at which clonogenic growth was effectively inhibited,[18],125 nM
same,clonogenic growth suppression,[6]; MDA-MB-231,effectively suppressed at a sub-μM concentration
same,clonogenic growth sensitivity,[19],quite resistant
same,CASP3 cleavage (activation),[20],in a dose-dependent manner
same,concentration at which weak CASP3 activation was notable,[20],63 nM
same,concentration at which weak p21 induction was seen,[21],250 nM
"CC[C@H](NC(=O)[C@H](C)NC)C(=O)N1C[C@@H](O)C[C@H]1Cc1c(-c2[nH]c3cc(F)ccc3c2C[C@@H]2C[C@H](O)CN2C(=O)[C@H](CC)NC(=O)[C@H](C)NC)[nH]c2cc(F)ccc12 [birinapant, reference compound]",CASP3 cleavage (activation),[20],activated CASP3
CC(C)C[C@H](NC(=O)[C@H](Cc1ccccc1)NC(=O)c1cnccn1)B(O)O [bortezomib],effect of pretreatment on YX968-mediated HDAC3 degradation,[1]; [23],could also reverse
"CCCNNC(=O)c1ccc(N2CCN(C(C)=O)CC2)cc1 [compound 14, 4-(4-acetylpiperazin-1-yl)-N′-propylbenzohydrazide]",fold less potent than 15 for the three HDAC isozymes,"[22]; HDAC1, HDAC3, HDAC8",3- to 7 fold
same,HDAC1/3/8 inhibitory potency and selectivity,[22],preferentially inhibited HDAC3
"CCCNNC(=O)c1ccc(N2CCN(C)CC2)cc1 [compound 15, 4-(4-methylpiperazin-1-yl)-N′-propylbenzohydrazide]",HDAC1/3/8 inhibitory potency and selectivity,[22],highest potency among all the new analogues
"CCCNNC(=O)c1ccc(CN2CCN(C(C)=O)CC2)cc1 [compound 16, 4-((4-acetylpiperazin-1-yl)methyl)-N′-propylbenzohydrazide]",HDAC1/3/8 inhibitory potency and selectivity,[22],dramatic decline of selectivity and potency
